Literature values, collected in patent publication US11667640B2, “Mitoketoscins: mitochondrial-based therapeutics targeting ketone metabolism in cancer cells” (LUNELLA BIOTECH, INC., priority 2017, dated 2023).

Target: T1, ACAT1 (Homo sapiens, UniProt P24752)
T1 sequence (P24752 34-427): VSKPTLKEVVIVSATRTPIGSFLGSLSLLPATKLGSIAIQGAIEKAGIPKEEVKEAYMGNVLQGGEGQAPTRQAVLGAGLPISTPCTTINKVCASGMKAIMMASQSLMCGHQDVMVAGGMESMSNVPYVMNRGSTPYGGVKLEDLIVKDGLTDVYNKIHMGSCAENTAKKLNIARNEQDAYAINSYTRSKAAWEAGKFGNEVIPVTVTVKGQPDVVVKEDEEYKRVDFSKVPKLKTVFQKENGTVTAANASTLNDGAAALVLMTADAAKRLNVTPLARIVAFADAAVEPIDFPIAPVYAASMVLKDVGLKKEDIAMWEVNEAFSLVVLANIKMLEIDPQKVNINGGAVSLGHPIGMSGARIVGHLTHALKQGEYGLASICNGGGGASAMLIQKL
Conditions: Garcia-Bermudez et al, Mol Cell 2016

COC(=O)C1=CCCN(C)C1 [Arecoline]
ACAT1 inhibition: potential ACAT1 inhibitor
